Reference: patent publication US20120202794A1 (priority 2011, published 2012)

Columns and labels:
[1] = test system: HCV Replicon 1b; assay: HCV inhibition assay, HCV replicon 1b (Clone A or ET-lunet cells; RT-PCR or luciferase reporter); type: cell-based; details: Hepatitis C virus, 96 h, HCV replicon 1b; 4 days incubation; read-out: Replicon 1b potency EC90
Procedure, shortened: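 Clone A (1500/well) or ET-lunet (3000/well) replicon cells treated with serially diluted compounds (0.5% DMSO, no G418) for 4 days at 37 °C. HCV RNA measured by one-step RT-PCR normalized to rRNA (ΔΔCt) or by luciferase luminescence versus DMSO controls; EC50/EC90 by curve fitting.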

[2] = test system: Huh7, HepG2, BxPC3, or CEM cells; assay: Cell cytotoxicity assay (MTS), CC90 as reported in Table 1, cell line not stated; type: cell-based; details: MTS assay; 8 days incubation; cell line not given
Procedure, shortened: (§1)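 Compounds, serially diluted from 100 μM, were incubated 8 days at 37° C with Huh7, HepG2 or BxPC3 (2×10^3 cells/well) or CEM (5×10^3 cells/well). Viability was read by MTS, 2 h, absorbance 490 nm. CC90 (90% inhibition) was taken against untreated cells.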

[3] = as above; type: cell-based; details: human; MTS assay; 8 days incubation; cell line not given
Procedure, shortened: as §1

[4] = test system: genotype (GT) 1a H77 replicon; assay: Replicon assay, H77 GT 1a replicon in Huh7-Lunet cells (RT-PCR); type: cell-based, HCV; details: Hepatitis C virus, GT1A, Huh-7, 96 h, 4 days incubation, read-out: RT-PCR H77 1a Potency EC90
Protocol: Cell Line and Maintenance: The genotype (GT) 1a H77 replicon (Apath LLC Brooklyn, N.Y.) was stably expressed in Huh7-Lunet cells (kindly provided by R. Bartenschlager University of Heidelberg, Heidelberg, Germany) and maintained in Dulbecco's modified Eagle's medium supplemented with 10% fetal bovine serum, 0.1 mM non essential amino acids (NEAA), 4 mM L-glutamine, 1 mM sodium pyruvate and 0.750 mg/mL G418 (Geneticin) (Invitrogen, Carlsbad, Calif.).
Replicon Assay: Inhibition of HCV in the H77 GT 1a replicon (Apath LLC, Brooklyn, N.Y.) was measured by Real-Time PCR (RT-PCR) Replicon cells were added to the plate at 1500 cells/well in 50 μL of medium and 50 μL of 2× drug dilutions were added (in duplicate) per well in a 96 well plate to total 100 μL per well. The plate was incubated at 37° C. in a humidified 8% CO2 atmosphere for 4 days. After incubation, the supernatant was discarded and total RNA was extracted with RNeasy 96 (Qiagen, Valencia Calif.) per manufacturer's instructions. The extracted RNA was amplified as described by Stuyver et al., J. Virol. (2003) 77: 10689-10694, and the ΔCt values for HCV were determined and the EC90 was calculated using GraphPad Prism software (San Diego, Calif.). A “no drug” (medium only) control was used to determine maximum amount of HCV RNA.

CC(C)C[C@H]1CN(C(=O)c2cc(-c3ccc([N+](=O)[O-])cc3)on2)[C@@H](CC(C)C)C(=O)N1 [Compound 273, (3S,6S)-3,6-diisobutyl-4-(5-(4-nitrophenyl)isoxazole-3-carbonyl)piperazin-2-one]
EC90 [1]: 3760 nM | CC90 [2]: > 10000 nM

CC(C)C[C@H]1C(=O)N[C@@H](c2ccccc2)CN1C(=O)c1noc(-c2ccc(F)cc2)n1 [Compound 292, (3S,6S)-4-(5-(4-Fluorophenyl)-1,2,4-oxadiazole-3-carbonyl)-3-isobutyl-6-phenylpiperazin-2-one]
EC90 [1]: 78 nM | CC90 at 8 days [3]: > 10000 nM | EC90 [4]: 79 nM

CC(C)C[C@H]1CN(C(=O)[C@@H]2C[C@H]2c2ccc(F)cc2F)[C@@H](CC(C)C)C(=O)N1 [Compound 298, (3S,6S)-4-[(1R,2R)-2-(2,4-fluoro-phenyl)-cyclopropanecarbonyl]-3,6-diisobutyl-piperazin-2-one]
EC90 [1]: 230 nM | CC90 [2]: > 10000 nM

CC(C)C[C@H]1C(=O)N[C@@H](c2ccccc2F)CN1C(=O)c1cc(-c2ccc(F)cc2)on1 [Compound 355, (3S,6S)-6-(2-fluorophenyl)-4-(5-(4-fluorophenyl)isoxazole-3-carbonyl)-3-isobutyl-piperazin-2-one]
EC90 [1]: 93 nM | CC90 at 8 days [3]: > 10000 nM | EC90 [4]: 160 nM

CC(C)C[C@H]1C(=O)N[C@@H](c2ccccc2F)CN1C(=O)c1noc(-c2ccc(F)cc2)n1 [Compound 370, (3S,6S)-6-(2-fluorophenyl)-4-(5-(4-fluorophenyl)-1,2,4-oxadiazole-3-carbonyl)-3-isobutylpiperazin-2-one]
EC90 [1]: 61 nM | CC90 at 8 days [3]: > 10000 nM | EC90 [4]: 99 nM

CC(C)C[C@H]1C(=O)N[C@@H](c2ccccc2F)CN1C(=O)[C@@H]1C[C@H]1c1ccc(F)cc1 [Compound 373, (3S,6S)-6-(2-fluorophenyl)-4-((1R,2R)-2-(4-fluorophenyl)cyclopropanecarbonyl)-3-isobutylpiperazin-2-one]
EC90 [1]: 57 nM | CC90 at 8 days [3]: > 10000 nM | EC90 [4]: 87 nM

C/C=C/[C@H]1CN(C(=O)c2cc(-c3ccc(F)cc3)on2)[C@@H](CC(C)C)C(=O)N1 [Compound 424, (3S,6S)-4-(5-(4-fluorophenyl)isoxazole-3-carbonyl)-3-isobutyl-6-((E)-prop-1-en-1-yl)piperazin-2-one]
EC90 [1]: 64 nM | CC90 at 8 days [3]: > 10000 nM | EC90 [4]: 82 nM

CC(C)C[C@H]1C(=O)N[C@@H](c2cccs2)CN1C(=O)c1cc(-c2ccc(F)cc2)on1 [Compound 426, (3S,6R)-4-(5-(4-fluorophenyl)isoxazole-3-carbonyl)-3-isobutyl-6-(thiophen-2-yl)piperazin-2-one]
EC90 [1]: 18 nM | CC90 at 8 days [3]: > 10000 nM | EC90 [4]: 48 nM

CC(C)C[C@H]1C(=O)N[C@@H](c2cccs2)CN1C(=O)c1noc(-c2ccc(F)cc2)n1 [Compound 430, (3S,6R)-4-(5-(4-fluorophenyl)-1,2,4-oxadiazole-3-carbonyl)-3-isobutyl-6-(thiophen-2-yl)piperazin-2-one]
EC90 [1]: 2.6 nM | CC90 at 8 days [3]: > 10000 nM | EC90 [4]: 18 nM

CC(C)C[C@H]1C(=O)N[C@@H](c2cccs2)CN1C(=O)c1cc(-c2ccc(F)cc2)no1 [Compound 432, (3S,6R)-4-(3-(4-fluorophenyl)isoxazole-5-carbonyl)-3-isobutyl-6-(thiophen-2-yl)piperazin-2-one]
EC90 [1]: 20 nM | CC90 at 8 days [3]: > 10000 nM | EC90 [4]: 22 nM

CC(C)C[C@H]1C(=O)N[C@@H](c2cccs2)CN1C(=O)[C@@H]1C[C@H]1c1ccc(F)cc1 [Compound 433, (3S,6R)-4-((1R,2R)-2-(4-fluorophenyl)cyclopropanecarbonyl)-3-isobutyl-6-(thiophen-2-yl)piperazin-2-one]
EC90 [1]: 18 nM | CC90 at 8 days [3]: > 10000 nM | EC90 [4]: 30 nM

CC(C)C[C@H]1C(=O)N[C@@H](c2ccsc2)CN1C(=O)c1cc(-c2ccc(F)cc2)on1 [Compound 436, (3S,6S)-4-(5-(4-fluorophenyl)isoxazole-3-carbonyl)-3-isobutyl-6-(thiophen-3-yl)piperazin-2-one]
EC90 [1]: 18 nM | CC90 at 8 days [3]: > 10000 nM | EC90 [4]: 38 nM

CC(C)C[C@H]1C(=O)N[C@@H](c2ccsc2)CN1C(=O)[C@@H]1C[C@H]1c1ccc(F)cc1 [Compound 445, (3S,6S)-4-((1R,2R)-2-(4-fluorophenyl)cyclopropanecarbonyl)-3-isobutyl-6-(thiophen-3-yl)piperazin-2-one]
EC90 [1]: 27 nM | CC90 at 8 days [3]: > 10000 nM | EC90 [4]: 20 nM

CC(C)C[C@H]1C(=O)N[C@@H](c2ccsc2)CN1C(=O)c1noc(-c2ccc(F)cc2)n1 [Compound 446, (3S,6S)-4-(5-(4-fluorophenyl)-1,2,4-oxadiazole-3-carbonyl)-3-isobutyl-6-(thiophen-3-yl)piperazin-2-one]
EC90 [1]: 14 nM | CC90 at 8 days [3]: > 10000 nM | EC90 [4]: 28 nM

CC(C)C[C@H]1C(=O)N[C@@H](c2ccsc2Cl)CN1C(=O)c1cc(-c2ccc(F)cc2)on1 [Compound 496, (3S,6S)-6-(2-chlorothiophen-3-yl)-4-(5-(4-fluorophenyl)isoxazole-3-carbonyl)-3-isobutylpiperazin-2-one]
EC90 [1]: 11 nM | CC90 at 8 days [3]: > 10000 nM | EC90 [4]: 65 nM

CC(C)C[C@H]1C(=O)N[C@@H](c2ccsc2Cl)CN1C(=O)c1noc(-c2ccc(F)cc2)n1 [Compound 499, (3S,6S)-6-(2-chlorothiophen-3-yl)-4-(5-(4-fluorophenyl)-1,2,4-oxadiazole-3-carbonyl)-3-isobutylpiperazin-2-one]
EC90 [1]: 23 nM | CC90 at 8 days [3]: > 10000 nM | EC90 [4]: 83 nM

CC(C)C[C@H]1C(=O)N[C@@H](c2cnco2)CN1C(=O)/C=C/c1ccc(F)cc1F [Compound 520, (3S,6R)-4-((E)-3-(2,4-difluorophenyl)acryloyl)-3-isobutyl-6-(oxazol-5-yl)piperazin-2-one]
EC90 [1]: 470 nM | CC90 at 8 days [3]: > 10000 nM

CC(C)C[C@H]1C(=O)N[C@@H](c2cnco2)CN1C(=O)[C@@H]1C[C@H]1c1ccc(F)cc1 [Compound 521, (3S,6R)-4-((1R,2R)-2-(4-fluorophenyl)cyclopropanecarbonyl)-3-isobutyl-6-(oxazol-5-yl)piperazin-2-one]
EC90 [1]: 22 nM | CC90 at 8 days [3]: > 10000 nM | EC90 [4]: 4 nM

CC(C)C[C@H]1C(=O)N[C@@H](c2cnco2)CN1C(=O)c1cc(-c2ccc(F)cc2F)on1 [Compound 522, (3S,6R)-4-(5-(2,4-difluorophenyl)isoxazole-3-carbonyl)-3-isobutyl-6-(oxazol-5-yl)piperazin-2-one]
EC90 [1]: 270 nM | CC90 at 8 days [3]: > 10000 nM

CC(C)C[C@H]1C(=O)N[C@@H](c2ccc[nH]2)CN1C(=O)c1cc(-c2ccc(F)cc2)on1 [Compound 523, (3S,6R)-4-(5-(4-fluorophenyl)isoxazole-3-carbonyl)-3-isobutyl-6-(1H-pyrrol-2-yl)piperazin-2-one]
EC90 [1]: 1060 nM | CC90 at 8 days [3]: > 10000 nM

CC(C)C[C@H]1C(=O)N[C@H](c2ccc[nH]2)CN1C(=O)c1cc(-c2ccc(F)cc2)on1 [Compound 524, (3S,6S)-4-(5-(4-fluorophenyl)isoxazole-3-carbonyl)-3-isobutyl-6-(1H-pyrrol-2-yl)piperazin-2-one]
EC90 [1]: > 10000 nM | CC90 at 8 days [3]: > 10000 nM

CC(C)C[C@H]1C(=O)N[C@@H](c2ccccc2)N1C(=O)c1cc(-c2ccc(F)cc2)on1 [Compound 528, (2R,5S)-1-(5-(4-fluorophenyl)isoxazole-3-carbonyl)-5-isobutyl-2-phenylimidazolidin-4-one]
EC90 [1]: > 10000 nM | CC90 at 8 days [3]: > 10000 nM

CC(C)C[C@H]1C(=O)N[C@H](c2ccccc2)N1C(=O)c1cc(-c2ccc(F)cc2)on1 [Compound 529, (2S,5S)-1-(5-(4-fluorophenyl)isoxazole-3-carbonyl)-5-isobutyl-2-phenylimidazolidin-4-one]
EC90 [1]: > 10000 nM | CC90 at 8 days [3]: > 10000 nM

CC(C)C[C@H]1C(=O)N[C@@H](c2ccccc2)N1C(=O)[C@H]1C[C@@H]1c1ccccc1 [Compound 530, (2R,5S)-5-isobutyl-2-phenyl-1-((1S,2S)-2-phenylcyclopropanecarbonyl)imidazolidin-4-one]
EC90 [1]: > 10000 nM | CC90 at 8 days [3]: > 10000 nM

CC(C)C[C@H]1C(=O)N[C@@H](c2ccccc2)N1C(=O)[C@H]1C[C@@H]1c1ccc(F)cc1 [Compound 532, (2R,5S)-1-((1S,2S)-2-(4-fluorophenyl)cyclopropanecarbonyl)-5-isobutyl-2-phenyl-imidazolidin-4-one]
EC90 [1]: > 10000 nM | CC90 at 8 days [3]: > 10000 nM
